According to US12643903B2, “Bifunctional compounds for degradation of EGFR and related methods of use” (BeiGene, Ltd., priority 2020, dated 2026):

Tests used:
[1] = biological target: T1, EGFR (Homo sapiens, UniProt P00533, L858R/T790M); test: Cell Degradation 1: EGFR degradation in H1975 cells, HTRF assay; assay type: cell-based; conditions: 16 h treatment, EGFR degradation by HTRF
T1 construct: endogenous in cells; host or cells: H1975
Experimental: After 16 h treatment, add 100 μl 1×lysis buffer to each well; seal the plate and incubate 1 hour at room temperature on a plate shaker; Once the cells are lysed, 16 μL of cell lysate are transferred to a PE 384-well HTRF detection plate; 4 μL of pre-mixed HTRF antibodies are added to each well; Cover the plate with a plate sealer, spin 1000 rpm for 1 min, Incubate overnight at room temperature; Read on BMG PheraStar with HTRF protocol (337 nm-665 nm-620 nm).
(§1) The IC50 (DC50) value of a compound can be obtained by fitting the following equation Y=Bottom+(TOP−Bottom)/(1+((IC50/X)^hillslope))
(§2) Wherein, X and Y are known values, and IC50, Hillslope, Top and Bottom are the parameters obtained by fitting with software. Y is the inhibition percentage (calculated from the equation), X is the concentration of the compound; IC50 is the concentration of the compound when the 50% inhibition is reached. The smaller the IC50 value is, the stronger the inhibitory ability of the compound is. Vice versa, the higher the IC50 value is, the weaker the ability the inhibitory ability of the compound is; Hillslope represents the slope of the fitted curve, generally around 1*; Bottom represents the minimum value of the curve obtained by data fitting, which is generally 0%±20%; Top represents the maximum value of the curve obtained by data fitting, which is generally 100%±20%. The experimental data were fitted by calculating and analyzing with Dotmatics data analysis software.

[2] = biological target: T2, EGFR (Homo sapiens, UniProt P00533, DEL746-750); test: Cell Degradation 2: EGFR degradation in HCC827 cells, HTRF assay; assay type: cell-based; conditions: 16 h treatment, EGFR degradation by HTRF
T2 construct: endogenous in cells; host or cells: HCC827
T2 sequence (P00533 with tags, fused parts or gaps DEL746-750): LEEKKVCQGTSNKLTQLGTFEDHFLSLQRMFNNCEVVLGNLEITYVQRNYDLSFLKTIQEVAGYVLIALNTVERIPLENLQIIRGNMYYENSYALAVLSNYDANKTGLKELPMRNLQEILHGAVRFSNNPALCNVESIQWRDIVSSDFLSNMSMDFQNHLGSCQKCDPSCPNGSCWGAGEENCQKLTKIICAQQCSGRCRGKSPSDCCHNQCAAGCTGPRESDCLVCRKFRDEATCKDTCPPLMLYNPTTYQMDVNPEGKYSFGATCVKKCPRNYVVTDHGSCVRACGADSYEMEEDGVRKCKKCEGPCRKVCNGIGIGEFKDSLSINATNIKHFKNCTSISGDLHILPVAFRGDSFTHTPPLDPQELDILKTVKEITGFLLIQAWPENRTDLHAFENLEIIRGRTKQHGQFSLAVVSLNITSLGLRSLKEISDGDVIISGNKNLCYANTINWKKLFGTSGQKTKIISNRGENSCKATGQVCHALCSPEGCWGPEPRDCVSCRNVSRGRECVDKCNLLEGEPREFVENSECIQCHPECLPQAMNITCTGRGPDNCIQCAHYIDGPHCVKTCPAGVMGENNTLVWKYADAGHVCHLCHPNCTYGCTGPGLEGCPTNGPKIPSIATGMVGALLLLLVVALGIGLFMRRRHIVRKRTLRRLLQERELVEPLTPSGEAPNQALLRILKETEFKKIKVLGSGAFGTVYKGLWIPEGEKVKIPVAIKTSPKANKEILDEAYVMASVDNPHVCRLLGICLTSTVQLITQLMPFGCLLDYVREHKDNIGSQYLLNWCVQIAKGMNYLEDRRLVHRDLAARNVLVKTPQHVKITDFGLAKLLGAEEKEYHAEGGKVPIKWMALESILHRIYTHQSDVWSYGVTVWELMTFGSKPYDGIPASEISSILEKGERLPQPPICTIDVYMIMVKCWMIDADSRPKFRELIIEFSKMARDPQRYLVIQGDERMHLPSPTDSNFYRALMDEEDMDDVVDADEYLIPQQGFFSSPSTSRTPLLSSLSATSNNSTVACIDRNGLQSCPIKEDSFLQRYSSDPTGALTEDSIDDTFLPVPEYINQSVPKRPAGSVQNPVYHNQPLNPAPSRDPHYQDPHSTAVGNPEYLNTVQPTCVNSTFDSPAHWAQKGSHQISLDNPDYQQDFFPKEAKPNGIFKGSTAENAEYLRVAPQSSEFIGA
T2 sequence (Q96SW2 whole entry partner): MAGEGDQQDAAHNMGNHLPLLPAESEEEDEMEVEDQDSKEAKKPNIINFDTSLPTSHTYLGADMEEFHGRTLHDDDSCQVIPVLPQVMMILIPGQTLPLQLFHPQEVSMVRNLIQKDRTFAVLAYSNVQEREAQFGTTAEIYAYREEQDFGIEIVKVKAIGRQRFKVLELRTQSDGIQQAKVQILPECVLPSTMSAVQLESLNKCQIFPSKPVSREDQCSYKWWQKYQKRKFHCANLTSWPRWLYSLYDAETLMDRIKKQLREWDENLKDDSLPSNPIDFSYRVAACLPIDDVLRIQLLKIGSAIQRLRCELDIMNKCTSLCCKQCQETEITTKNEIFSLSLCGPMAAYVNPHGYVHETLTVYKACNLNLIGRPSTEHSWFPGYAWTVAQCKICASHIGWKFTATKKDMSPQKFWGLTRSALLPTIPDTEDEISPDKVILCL
Experimental: After 16 h treatment, add 100 μl 1×lysis buffer to each well; seal the plate and incubate 1 hour at room temperature on a plate shaker; Once the cells are lysed, 16 μl diluted (2 μL to 14 μl 1× lysisi buffer) cell lysate are transferred to a PE 384-well HTRF detection plate; 4 μL of pre-mixed HTRF antibodies are added to each well; Cover the plate with a plate sealer, spin 1000 rpm for 1 min, Incubate overnight at room temperature; Read on BMG PheraStar with HTRF protocol (337 nm-665 nm-620 nm).
as §1, §2

T1 sequence (P00533 25-1210 T790M/L858R): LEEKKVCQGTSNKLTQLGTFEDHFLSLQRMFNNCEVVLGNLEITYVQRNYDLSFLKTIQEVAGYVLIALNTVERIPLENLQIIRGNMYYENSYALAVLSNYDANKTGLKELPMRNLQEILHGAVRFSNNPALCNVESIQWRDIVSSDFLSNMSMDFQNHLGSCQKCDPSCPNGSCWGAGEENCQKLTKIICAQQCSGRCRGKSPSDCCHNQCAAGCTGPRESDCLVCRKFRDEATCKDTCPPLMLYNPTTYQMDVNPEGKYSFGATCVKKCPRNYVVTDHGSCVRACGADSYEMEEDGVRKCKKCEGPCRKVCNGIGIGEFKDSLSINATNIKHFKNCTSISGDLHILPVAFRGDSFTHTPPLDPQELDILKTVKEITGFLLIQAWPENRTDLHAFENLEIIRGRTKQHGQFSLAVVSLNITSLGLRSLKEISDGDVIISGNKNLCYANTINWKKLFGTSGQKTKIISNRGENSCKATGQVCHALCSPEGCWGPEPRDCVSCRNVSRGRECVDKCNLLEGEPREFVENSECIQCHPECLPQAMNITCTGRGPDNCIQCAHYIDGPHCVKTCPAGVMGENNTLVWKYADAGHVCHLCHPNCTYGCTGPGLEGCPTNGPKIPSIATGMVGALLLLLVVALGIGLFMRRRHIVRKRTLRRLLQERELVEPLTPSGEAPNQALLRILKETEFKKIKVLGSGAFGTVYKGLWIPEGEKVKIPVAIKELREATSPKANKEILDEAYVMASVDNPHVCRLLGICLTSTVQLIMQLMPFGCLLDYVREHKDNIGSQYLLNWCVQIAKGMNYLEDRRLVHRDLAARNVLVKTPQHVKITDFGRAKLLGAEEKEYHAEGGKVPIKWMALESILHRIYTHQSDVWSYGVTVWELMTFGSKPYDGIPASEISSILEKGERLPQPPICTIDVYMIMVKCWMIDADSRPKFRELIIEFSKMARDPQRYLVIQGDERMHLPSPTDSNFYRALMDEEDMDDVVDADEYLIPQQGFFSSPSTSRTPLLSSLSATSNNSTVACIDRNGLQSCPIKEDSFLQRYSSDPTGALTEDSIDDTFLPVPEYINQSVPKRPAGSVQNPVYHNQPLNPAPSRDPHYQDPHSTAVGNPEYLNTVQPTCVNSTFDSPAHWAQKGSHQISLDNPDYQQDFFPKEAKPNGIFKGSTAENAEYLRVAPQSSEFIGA

| SMILES | DC50 [1] [nM] | DC50 [2] [nM] |
| --- | --- | --- |
| CS(=O)(=O)N1CCc2cccc(Nc3nc(Nc4ccc(N5CCC(N6CCN(CCC7CCN(c8ccc9c(c8)C(=O)N(C8CCC(=O)NC8=O)C9=O)CC7)CC6)CC5)c5c4OCC5)ncc3Cl)c21 (stereo not drawn) [Example 52, 5-(4-(2-(4-(1-(7-((5-chloro-4-((1-(methylsulfonyl)indolin-7-yl)amino)pyrimidin-2-yl)amino)-2,3-dihydrobenzofuran-4-yl)piperidin-4-yl)piperazin-1-yl)ethyl)piperidin-1-yl)-2-(2,6-dioxopiperidin-3-yl)isoindoline-1,3-dione] | 7 | 3.5 |
| CS(=O)(=O)N1CCc2cccc(Nc3nc(Nc4ccc(N5CCC(N6CCN(CCCC7CN(c8ccc9c(c8)C(=O)N(C8CCC(=O)NC8=O)C9=O)C7)CC6)CC5)c5c4OCC5)ncc3Cl)c21 (stereo not drawn) [Example 55, 5-(3-(3-(4-(1-(7-((5-chloro-4-((1-(methylsulfonyl)indolin-7-yl)amino)pyrimidin-2-yl)amino)-2,3-dihydrobenzofuran-4-yl)piperidin-4-yl)piperazin-1-yl)propyl)azetidin-1-yl)-2-(2,6-dioxopiperidin-3-yl)isoindoline-1,3-dione] | 9.6 | 11.9 |
| CS(=O)(=O)N1CCc2cccc(Nc3nc(Nc4ccc(N5CCC(N6CCN(C(=O)CC7CN(c8ccc9c(c8)C(=O)N(C8CCC(=O)NC8=O)C9=O)C7)CC6)CC5)c(F)c4)nc4[nH]ccc34)c21 (stereo not drawn) [Example 61, 2-(2,6-dioxopiperidin-3-yl)-5-(3-(2-(4-(1-(2-fluoro-4-((4-((1-(methylsulfonyl)indolin-7-yl)amino)-7H-pyrrolo[2,3-d]pyrimidin-2-yl)amino)phenyl)piperidin-4-yl)piperazin-1-yl)-2-oxoethyl)azetidin-1-yl)isoindoline-1,3-dione] | 5.7 | 19.4 |
| CS(=O)(=O)N1CCc2cccc(Nc3nc(Nc4ccc(N5CCC(N6CCN(CC[C@@H]7CCN(c8ccc(C9CCC(=O)NC9=O)cc8)C7)CC6)CC5)c(F)c4)nc4[nH]ccc34)c21 (stereo partly drawn) [Example 64, 3-(4-((R)-3-(2-(4-(1-(2-fluoro-4-((4-((1-(methylsulfonyl)indolin-7-yl)amino)-7H-pyrrolo[2,3-d]pyrimidin-2-yl)amino)phenyl)piperidin-4-yl)piperazin-1-yl)ethyl)pyrrolidin-1-yl)phenyl)piperidine-2,6-dione] | 6.1 | 156 |
| CS(=O)(=O)N1CCc2cccc(Nc3nc(Nc4ccc(N5CCC(N6CCN(CCc7ccc(NC8CCC(=O)NC8=O)cc7)CC6)CC5)c(F)c4)nc4[nH]ccc34)c21 (stereo not drawn) [Example 66, 3-((4-(2-(4-(1-(2-fluoro-4-((4-((1-(methylsulfonyl)indolin-7-yl)amino)-7H-pyrrolo[2,3-d]pyrimidin-2-yl)amino)phenyl)piperidin-4-yl)piperazin-1-yl)ethyl)phenyl)amino)piperidine-2,6-dione] | 7.1 | 18 |
| CS(=O)(=O)N1CCc2cccc(Nc3nc(Nc4ccc(N5CCC(N6CCN(CCc7ccc(C8CCC(=O)NC8=O)c(F)c7F)CC6)CC5)c(F)c4)nc4[nH]ccc34)c21 (stereo not drawn) [Example 69, 3-(2,3-difluoro-4-(2-(4-(1-(2-fluoro-4-((4-((1-(methylsulfonyl)indolin-7-yl)amino)-7H-pyrrolo[2,3-d]pyrimidin-2-yl)amino)phenyl)piperidin-4-yl)piperazin-1-yl)ethyl)phenyl)piperidine-2,6-dione] | 10.8 | 29.8 |
| CS(=O)(=O)N1CCc2cccc(Nc3nc(Nc4ccc(N5CCC(N6CCN(CCC7CCN(c8ccc9c(c8)C(=O)N(C8CCC(=O)NC8=O)C9=O)CC7)CC6)CC5)c(F)c4)ncc3Cl)c21 (stereo not drawn) [Example 81, 5-(4-(2-(4-(1-(4-((5-chloro-4-((1-(methylsulfonyl)indolin-7-yl)amino)pyrimidin-2-yl)amino)-2-fluorophenyl)piperidin-4-yl)piperazin-1-yl)ethyl)piperidin-1-yl)-2-(2,6-dioxopiperidin-3-yl)isoindoline-1,3-dione] | 12.2 | 3.4 |

The next compounds have a lower DC50 [1] than those just listed; values first:

| DC50 [1] [nM] | DC50 [2] [nM] | SMILES |
| --- | --- | --- |
| 5.5 | 4.6 | CS(=O)(=O)N1CCc2cccc(Nc3nc(Nc4ccc(N5CCC(N6CCN(CCCC7CN(c8ccc9c(c8)C(=O)N(C8CCC(=O)NC8=O)C9=O)C7)CC6)CC5)c(F)c4)ncc3Cl)c21 (stereo not drawn) [Example 78, 5-(3-(3-(4-(1-(4-((5-chloro-4-((1-(methylsulfonyl)indolin-7-yl)amino)pyrimidin-2-yl)amino)-2-fluorophenyl)piperidin-4-yl)piperazin-1-yl)propyl)azetidin-1-yl)-2-(2,6-dioxopiperidin-3-yl)isoindoline-1,3-dione] |
| 4.9 | 14.6 | CS(=O)(=O)N1CCc2cccc(Nc3nc(Nc4ccc(N5CCC(N6CCN(CC7CN(c8ccc9c(c8)C(=O)N(C8CCC(=O)NC8=O)C9=O)C7)CC6)CC5)c(F)c4)nc4[nH]ccc34)c21 (stereo not drawn) [Example 60, 2-(2,6-dioxopiperidin-3-yl)-5-(3-((4-(1-(2-fluoro-4-((4-((1-(methylsulfonyl)indolin-7-yl)amino)-7H-pyrrolo[2,3-d]pyrimidin-2-yl)amino)phenyl)piperidin-4-yl)piperazin-1-yl)methyl)azetidin-1-yl)isoindoline-1,3-dione] |
| 4.7 | > 10000 | COc1cc(Nc2nc(Nc3cccc4c3N(S(C)(=O)=O)CC4)c3cc[nH]c3n2)ccc1N1CCC(N2CCN(C(=O)[C@H]3CCN(c4ccc5c(c4)C(=O)N(C4CCC(=O)NC4=O)C5=O)C3)CC2)CC1 (stereo partly drawn) [Example 74, 2-(2,6-dioxopiperidin-3-yl)-5-((S)-3-(4-(1-(2-methoxy-4-((4-((1-(methylsulfonyl)indolin-7-yl)amino)-7H-pyrrolo[2,3-d]pyrimidin-2-yl)amino)phenyl)piperidin-4-yl)piperazine-1-carbonyl)pyrrolidin-1-yl)isoindoline-1,3-dione] |
| 3.9 | > 10000 | CS(=O)(=O)N1CCc2cccc(Nc3nc(Nc4ccc(N5CCC(N6CCN(C(=O)[C@H]7CCN(c8ccc9c(c8)C(=O)N(C8CCC(=O)NC8=O)C9=O)C7)CC6)CC5)c(F)c4)nc4[nH]ccc34)c21 (stereo partly drawn) [Example 63, 2-(2,6-dioxopiperidin-3-yl)-5-((S)-3-(4-(1-(2-fluoro-4-((4-((1-(methylsulfonyl)indolin-7-yl)amino)-7H-pyrrolo[2,3-d]pyrimidin-2-yl)amino)phenyl)piperidin-4-yl)piperazine-1-carbonyl)pyrrolidin-1-yl)isoindoline-1,3-dione] |
| 3.9 | > 10000 | COc1cc(Nc2nc(Nc3cccc4c3N(S(C)(=O)=O)CC4)c3cc[nH]c3n2)ccc1N1CCC(N2CCN(C(=O)[C@@H]3CCN(c4ccc5c(c4)C(=O)N(C4CCC(=O)NC4=O)C5=O)C3)CC2)CC1 (stereo partly drawn) [Example 75, 2-(2,6-dioxopiperidin-3-yl)-5-((R)-3-(4-(1-(2-methoxy-4-((4-((1-(methylsulfonyl)indolin-7-yl)amino)-7H-pyrrolo[2,3-d]pyrimidin-2-yl)amino)phenyl)piperidin-4-yl)piperazine-1-carbonyl)pyrrolidin-1-yl)isoindoline-1,3-dione] |
| 3.4 | 1170 | COc1cc(Nc2nc(Nc3cccc4c3N(S(C)(=O)=O)CC4)c3cc[nH]c3n2)ccc1N1CCC(N2CCN(C(=O)C3CN(c4ccc5c(c4)C(=O)N(C4CCC(=O)NC4=O)C5=O)C3)CC2)CC1 (stereo not drawn) [Example 73, 2-(2,6-dioxopiperidin-3-yl)-5-(3-(4-(1-(2-methoxy-4-((4-((1-(methylsulfonyl)indolin-7-yl)amino)-7H-pyrrolo[2,3-d]pyrimidin-2-yl)amino)phenyl)piperidin-4-yl)piperazine-1-carbonyl)azetidin-1-yl)isoindoline-1,3-dione] |
| 2.8 | 17.7 | CS(=O)(=O)N1CCc2cccc(Nc3nc(Nc4ccc(N5CCC(N6CCN(C(=O)C7CN(c8ccc(C9CCC(=O)NC9=O)cc8)C7)CC6)CC5)c(F)c4)nc4[nH]ccc34)c21 (stereo not drawn) [Example 58, 3-(4-(3-(4-(1-(2-fluoro-4-((4-((1-(methylsulfonyl)indolin-7-yl)amino)-7H-pyrrolo[2,3-d]pyrimidin-2-yl)amino)phenyl)piperidin-4-yl)piperazine-1-carbonyl)azetidin-1-yl)phenyl)piperidine-2,6-dione] |
| 2.7 | 3.1 | CS(=O)(=O)N1CCc2cccc(Nc3nc(Nc4ccc(N5CCC(N6CCN(CC7CN(c8ccc9c(c8)CN(C8CCC(=O)NC8=O)C9=O)C7)CC6)CC5)c(F)c4)nc4[nH]ccc34)c21 (stereo not drawn) [Example 59, 3-(5-(3-((4-(1-(2-fluoro-4-((4-((1-(methylsulfonyl)indolin-7-yl)amino)-7H-pyrrolo[2,3-d]pyrimidin-2-yl)amino)phenyl)piperidin-4-yl)piperazin-1-yl)methyl)azetidin-1-yl)-1-oxoisoindolin-2-yl)piperidine-2,6-dione] |
